Source: patent EP2776398B1, “SUBSTITUTED PYRAZOLYL-BASED UREA DERIVATIVES AS VANILLOID RECEPTOR LIGANDS” (Medifron DBT Inc., priority 2011, dated 2013)

The compounds below were run against T1, vanilloid receptor 1 (VR1/TRPV1 receptor) (Homo sapiens, UniProt Q8NER1) (assay: Functional testing on vanilloid receptor 1: FLIPR Ca2+ influx assay against capsaicin (Cap) in transfected CHO K1 cells (pharmacological method II)). Conditions: human VR1 in CHO K1 cells; AG printed instead of a Ki.
T1 construct: expressed in transfected cells; host or cells: CHO K1 cells (ECACC), stably transfected
Format: cell-based
Design: key to (f) Ki (human being) [nM] Cap: agonist classification: AG = agonist
Excerpt: […]
Throughout, for Ki: 100 nM capsaicin.

T1 sequence (Q8NER1 whole entry): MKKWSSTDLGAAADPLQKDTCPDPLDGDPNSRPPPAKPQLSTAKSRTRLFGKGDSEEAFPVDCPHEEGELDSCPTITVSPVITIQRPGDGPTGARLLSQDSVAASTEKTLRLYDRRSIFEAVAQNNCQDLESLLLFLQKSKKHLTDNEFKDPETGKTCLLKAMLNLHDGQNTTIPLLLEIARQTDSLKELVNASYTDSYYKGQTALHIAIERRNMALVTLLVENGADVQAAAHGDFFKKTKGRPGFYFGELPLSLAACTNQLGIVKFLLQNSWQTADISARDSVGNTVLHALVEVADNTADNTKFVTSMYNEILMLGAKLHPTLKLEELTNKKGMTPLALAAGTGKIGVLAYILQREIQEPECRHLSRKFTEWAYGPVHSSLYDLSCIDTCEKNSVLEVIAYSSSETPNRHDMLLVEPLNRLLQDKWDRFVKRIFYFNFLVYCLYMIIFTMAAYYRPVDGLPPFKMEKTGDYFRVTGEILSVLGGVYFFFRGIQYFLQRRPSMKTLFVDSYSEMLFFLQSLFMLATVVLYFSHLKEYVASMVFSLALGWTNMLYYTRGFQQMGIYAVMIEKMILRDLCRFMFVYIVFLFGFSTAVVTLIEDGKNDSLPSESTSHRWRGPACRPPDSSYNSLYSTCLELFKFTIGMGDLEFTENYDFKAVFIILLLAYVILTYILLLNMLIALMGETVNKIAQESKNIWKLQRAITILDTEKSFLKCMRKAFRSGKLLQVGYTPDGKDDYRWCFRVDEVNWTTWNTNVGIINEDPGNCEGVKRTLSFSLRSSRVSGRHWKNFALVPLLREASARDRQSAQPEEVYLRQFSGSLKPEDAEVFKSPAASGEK

`CC(C(=O)NCc1cc(C(C)(C)C)nn1-c1cccc(Cl)c1)c1ccc(CCO)c(F)c1` (stereo not shown) [A139, N-[[5-tert-Butyl-2-(3-chlorophenyl)-2H-pyrazol-3-yl]-methyl]-2-[3-fluoro-4-(2-hydroxy-ethyl)-phenyl]-propionamide] was tested, and the “(f) Ki (human being) [nM] Cap: agonist classification” value was “AG”.

Same assay, conditions: read-out: (f) Ki (human being) [nM] Cap

Compared with `CC(CO)(CO)c1ccc(NC(=O)NCc2cc(C(F)(F)F)nn2-c2cccc(Cl)c2)cc1F` [A154, 1-[[2-(3-Chlorophenyl)-5-(trifluoromethyl)-2H-pyrazol-3-yl]-methyl]-3-[3-fluoro-4-[2-hydroxy-1-(hydroxymethyl)-1-methyl-ethyl]-phenyl]-urea], `O=C(NCc1cc(C(F)(F)F)nn1-c1cccc(Cl)c1)Nc1ccc(C2(O)CC2)c(F)c1` [A106, 1-[[2-(3-Chlorophenyl)-5-(trifluoromethyl)-2H-pyrazol-3-yl]-methyl]-3-[3-fluoro-4-(1-hydroxy-cyclopropyl)-phenyl]-urea] is 3.8-fold lower in Ki: 117 nM for the first, 31 nM for the second. The second binds more tightly here.

First: O=C(Cc1ccc(COCCO)c(F)c1)NCc1cc(C(F)(F)F)nn1-c1cccc(Cl)c1 [A113, N-[[2-(3-Chlorophenyl)-5-(trifluoromethyl)-2H-pyrazol-3-yl]-methyl]-2-[3-fluoro-4-(2-hydroxy-ethoxy-methyl)-phenyl]-acetamide]
Second: C[C@@H](C(=O)NCc1cc(C(F)(F)F)nn1-c1cccc(Cl)c1)c1ccc(COCCO)c(F)c1 [A120, (2R)-N-[[2-(3-Chlorophenyl)-5-(trifluoromethyl)-2H-pyrazol-3-yl]-methyl]-2-[3-fluoro-4-(2-hydroxy-ethoxy-methyl)-phenyl]-propionamide]
The Ki of the first is 13-fold higher: 63 nM for the first, 5 nM for the second. The second binds more tightly here.

Compared with `CC(C)(C)c1cc(CNC(=O)Nc2ccc(CO)c(F)c2)n(-c2ccc(F)c(F)c2)n1` [A57, 1-[[5-tert-Butyl-2-(3,4-difluoro-phenyl)-2H-pyrazol-3-yl]-methyl]-3-[3-fluoro-4-(hydroxymethyl)-phenyl]-urea], `Cc1cccc(-n2nc(C(F)(F)F)cc2CNC(=O)Nc2ccc(CO)c(F)c2)c1C` [A72, 1-[[2-(2,3-Dimethyl-phenyl)-5-(trifluoromethyl)-2H-pyrazol-3-yl]-methyl]-3-[3-fluoro-4-(hydroxymethyl)-phenyl]-urea] is 7-fold higher in Ki: 2 nM for the first, 14 nM for the second.

First: CC(C(=O)NCc1cc(C(F)(F)F)nn1-c1cccc(F)c1)c1ccc(CO)c(F)c1 (stereo not shown) [A38, 2-[3-Fluoro-4-(hydroxymethyl)-phenyl]-N-[[2-(3-fluorophenyl)-5-(trifluoromethyl)-2H-pyrazol-3-yl]-methyl]-propionamide]
Second: CC(C(=O)NCc1cc(C(F)(F)F)nn1-c1cccc(F)c1)c1ccc(CCO)c(F)c1 (stereo not shown) [A136, 2-[3-Fluoro-4-(2-hydroxy-ethyl)-phenyl]-N-[[2-(3-fluorophenyl)-5-(trifluoromethyl)-2H-pyrazol-3-yl]-methyl]-propionamide]
The Ki of the first is 3.6-fold lower: 11 nM for the first, 40 nM for the second.

First: CC(C(=O)NCc1cc(C(F)(F)F)nn1-c1cccc(Cl)c1)c1ccc(C(O)CO)cc1 (stereo not shown) [A146, N-[[2-(3-Chlorophenyl)-5-(trifluoromethyl)-2H-pyrazol-3-yl]-methyl]-2-[4-(1,2-dihydroxy-ethyl)-phenyl]-propionamide]
Second: Cc1cccc(-n2nc(C(F)(F)F)cc2CNC(=O)C(C)c2ccc(COCCO)c(F)c2)c1 (stereo not shown) [A123, 2-[3-Fluoro-4-(2-hydroxy-ethoxy-methyl)-phenyl]-N-[[2-(m-tolyl)-5-(trifluoromethyl)-2H-pyrazol-3-yl]-methyl]-propionamide]
The Ki of the first is 1.8-fold lower: 13 nM for the first, 24 nM for the second. The first binds more tightly here.

Compared with `O=C(NCc1cc(C(F)(F)F)nn1-c1ccc(F)c(Cl)c1)Nc1ccc(OCCO)c(F)c1` [A22, 1-[[2-(3-Chloro-4-fluoro-phenyl)-5-(trifluoromethyl)-2H-pyrazol-3-yl]-methyl]-3-[3-fluoro-4-(2-hydroxy-ethoxy)-phenyl]-urea], `CC(C)(C)c1cc(CNC(=O)Nc2ccc(C3(O)CC3)c(F)c2)n(-c2cccc(Cl)c2)n1` [A105, 1-[[5-tert-Butyl-2-(3-chlorophenyl)-2H-pyrazol-3-yl]-methyl]-3-[3-fluoro-4-(1-hydroxy-cyclopropyl)-phenyl]-urea] is 2.1-fold lower in Ki: 40 nM for the first, 19 nM for the second.
